Data: publication PMC9088311, “Cyclic Thiosulfonates for Thiol-Mediated Uptake: Cascade Exchangers, Transporters, Inhibitors” (JACS Au, 2022)
Where two headings read alike, the source gives them in different places.

Tested on: HK cells, transporter 28
Assay: HCHT imaging: inhibition of cytosolic delivery of CTO transporter 28
Format: cell-based, Human
Conditions: inhibitor 1 h; for IC15 / IC50: Homo sapiens; for IC15: read-out: MIC (concentration needed to reach 15% inhibition), transporter 28 5 μM
[1] = read-out: IC50 (concentration needed to reach 50% inhibition), transporter 28 5 μM, pre-incubation (P)
[2] = transporter 28 5 μM, co-incubation (C)

Row | Structure (SMILES) | IC15 (1 h, pre-incubation (P)) [µM] | IC50 [1] [µM] | MIC (concentration needed to reach 15% inhibition) (transporter 28 5 μM, pre-incubation (P)) [µM] | IC50 (1 h, read-out: IC50 (concentration needed to reach 50% inhibition), transporter 28 5 μM, co-incubation (C)) [µM] | IC15 (1 h, co-incubation (C)) [µM] | MIC (concentration needed to reach 15% inhibition) [2] [µM] | IC50 (read-out: IC50 (concentration needed to reach 50% inhibition), transporter 28 5 μM, co-incubation (C)) [µM]
1 | [O-][S+]1C[C@@H](O)[C@@H](O)CS1 (some centres unmarked) [Compound 2] | > 50 | > 100 | >50 |  |  |  | 
2 | O=S1(=O)C[C@H](O)[C@H](O)CS1 (stereo in doubt) [Compound 3, (4S,5R)-4,5-dihydroxy-1,2-dithiane-1,1-dioxide] | 5 | 60 |  |  |  |  | 
3 | O=C1O[C@H]2CSS(=O)(=O)C[C@H]2O1 [Compound 11] |  |  |  | 70 ± 20 | < 1 | <1 | 
4 | O=S1(=O)C=C[C@@H](O)CS1 [Compound 12] |  |  |  |  | 4.8 | 5 | 60
